In the assay the target is Dihydroorotate dehydrogenase (quinone), mitochondrial (Homo sapiens, UniProt Q02127). Briefly: DHODH enzymatic assay. As for the experimental part:
To detect DHODH enzyme activities, dichloroindophenol (DCIP) is added as the final electron acceptor in the assay. DCIP can accept electrons from the reduced coenzyme Q generated in the assay, or from dihydroorotate (DHO) via FMN by binding presumably to the ubiquinone pocket. DCIP solutions are blue, with an intense absorbance around 600 nm, but becomes colorless upon reduction (J. Biol. Chem. (1986) 261, 11386). The assay buffer contained […], pH 7.5, 150 mM NaCl, 0.5 mM EDTA, and 0.1% Triton X-100 in MilliQ water. Substrate consisting of 20 mM DHO, 5mM CoQ6, and 1mM DCIP in assay buffer, initiates the reaction. The assay is run in end-point mode by quenching the reaction with the potent DHODH inhibitor brequinar. Absorbance measurements were obtained using the BMG Phera Star plate-reading spectrophotomer. Purified human DHODH was purchased from Proteros (cat. No. PR-0044). Chemicals were purchased from Sigma-Aldrich, Teknova, and Avanti Polar Lipids. Liquid handling was performed using Labcyte Echo and Formulatrix Tempest.

The term IC50 denotes the concentration that inhibits the measured activity by half.

Sequence of Dihydroorotate dehydrogenase (quinone), mitochondrial (Q02127 whole entry): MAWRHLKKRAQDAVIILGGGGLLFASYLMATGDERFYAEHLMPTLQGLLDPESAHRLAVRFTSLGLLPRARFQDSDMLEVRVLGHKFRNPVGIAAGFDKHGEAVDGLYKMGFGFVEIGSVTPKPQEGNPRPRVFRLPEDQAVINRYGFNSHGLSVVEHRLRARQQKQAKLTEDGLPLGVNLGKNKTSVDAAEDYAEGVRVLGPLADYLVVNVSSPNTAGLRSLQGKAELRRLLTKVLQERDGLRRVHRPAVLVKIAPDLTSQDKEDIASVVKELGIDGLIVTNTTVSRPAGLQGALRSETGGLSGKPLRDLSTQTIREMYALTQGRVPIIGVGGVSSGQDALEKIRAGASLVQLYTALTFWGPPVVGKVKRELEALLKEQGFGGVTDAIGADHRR

Take `Cc1cn(-c2cc(O[C@@H](C)C(F)(F)F)c(C(=O)Nc3c(F)cccc3Cl)cc2F)nc1[C@@H](C)O` (relative stereo) [WO2022070069, Example 1]: the IC50 is 0.48 nM.

The compound `Cc1cn(-c2cc(O[C@@H](C)C(F)(F)F)c(C(=O)Nc3c(F)cccc3Cl)cc2F)nc1[C@H](C)O` (relative stereo) [WO2022070069, Example 2] yielded an IC50 of 0.3 nM.

Take `Cc1cn(-c2cc(O[C@@H](C)C(F)(F)F)c(C(=O)Nc3c(C)n[nH]c3Cl)cc2F)nc1[C@@H](C)O` (relative stereo) [WO2022070069, Example 4]: the IC50 was 0.22 nM.

Take `Cc1cn(-c2cc(O[C@@H](C)C(F)(F)F)c(C(=O)Nc3c(C)n[nH]c3Cl)cc2F)nc1[C@H](C)O` (relative stereo) [WO2022070069, Example 5]: the IC50 turned out to be 0.26 nM.

In turn, `Cc1cn(-c2cc(O[C@@H](C)C(F)(F)F)c(C(=O)Nc3c(F)cccc3Cl)cc2F)nc1C(C)(C)O` [WO2022070069, Example 3] came in with an IC50 of 0.5 nM.

`Cc1cn(-c2cc(O[C@@H](C)C(F)(F)F)c(C(=O)Nc3c(C)n[nH]c3Cl)cc2F)nc1C(C)(C)O` [WO2022070069, Example 6] yielded a half-inhibitory concentration (IC50) of 0.38 nM.
